Experimental data taken from ChEMBL document CHEMBL1150587, “Evaluation of the potential cancer chemotherapeutic efficacy of natural product isolates employing in vivo hollow fiber tests” (J Nat Prod, 2002).
Each block holds one compound with its values, some of them ahead of it. Calls of active or inactive are those of the source. The calls are words filed in the database; no cut-off is given here.

Legend:
[1] = tested on: Lu1; assay: Growth inhibition of human Lu1 cells implanted intraperitoneally to NCr nu/nu mouse at15.5 to 124 umol/kg, ip administered from day 3 to 6 after implantation measured on day 7 by MTT-based hollow-fiber test; assay type: functional
[2] = tested on: Lu1; assay: Growth inhibition of human Lu1 cells implanted subcutaneously to NCr nu/nu mouse at15.5 to 124 umol/kg, ip administered from day 3 to 6 after implantation measured on day 7 by MTT-based hollow-fiber test; assay type: functional
[3] = tested on: Mus musculus; assay: Toxicity in NCr nu/nu mouse subcutaneously implanted with human Lu1 cells assessed as body weight change at 15.5 to 124 umol/kg, ip administered from day 3 to 6 after implantation measured on day 7; assay type: organism-based; settings: in vivo
[4] = tested on: Mus musculus; assay: Toxicity in human Lu1 cells implanted NCr nu/nu mouse at 516 umol/kg, ip administered from day 3 to 6 after implantation measured on day 7 by hollow-fiber test; assay type: organism-based; settings: in vivo
[5] = tested on: Mus musculus; assay: Toxicity in human Lu1 cells implanted NCr nu/nu mouse assessed as body weight loss at 252 umol/kg, ip administered from day 3 to 6 after implantation measured on day 7 by hollow-fiber test; assay type: organism-based; settings: in vivo
[6] = tested on: SK-MEL-2; assay: Cytotoxicity against human SK-MEL-2 cells after 72 hrs by SRB assay; assay type: functional, cell-based; settings: SK-MEL-2, 72 h
[7] = tested on: P388; assay: Cytotoxicity against mouse P388 cells after 72 hrs by SRB assay; assay type: functional, cell-based; settings: P388, 72 h
[8] = tested on: MCF7; assay: Cytotoxicity against human MCF7 cells after 72 hrs by SRB assay; settings: MCF7, 72 h
[9] = tested on: LNCaP; assay: Cytotoxicity against human LNCAP cells after 72 hrs by SRB assay; assay type: functional, cell-based
[10] = tested on: Lu1; assay: Cytotoxicity against human Lu1 cells after 72 hrs by SRB assay; assay type: functional, cell-based; settings: Lu1, 72 h
[11] = Cytotoxicity against human KBV1 cells after 72 hrs by SRB assay; assay type: functional, cell-based; settings: KB-V1, 72 h
[12] = tested on: KB; assay: Cytotoxicity against human KB cells after 72 hrs by SRB assay; assay type: functional, cell-based
[13] = tested on: Col2; assay: Cytotoxicity against human Col2 cells after 72 hrs by SRB assay; assay type: functional, cell-based; settings: Col2, 72 h
[14] = Cytotoxicity against human BC1 cells after 72 hrs by SRB assay; settings: BC1, 72 h
[15] = tested on: SW626; assay: Cytotoxicity against human SW626 cells after 72 hrs by SRB assay; assay type: functional, cell-based; settings: SW626, 72 h
[16] = tested on: KB; assay: Growth inhibition of human KB cells implanted subcutaneously to NCr nu/nu mouse at 72.6 to 290.7 umol/kg, ip administered from day 3 to 6 after implantation measured on day 7 by MTT-based hollow-fiber test; assay type: functional
[17] = tested on: MCF7; assay: Growth inhibition of human MCF7 cells implanted subcutaneously to NCr nu/nu mouse at 72.6 to 290.7 umol/kg, ip administered from day 3 to 6 after implantation measured on day 7 by MTT-based hollow-fiber test; assay type: functional
[18] = tested on: P388; assay: Growth inhibition of mouse P388 cells implanted subcutaneously to NCr nu/nu mouse at 72.6 to 290.7 umol/kg, ip administered from day 3 to 6 after implantation measured on day 7 by MTT-based hollow-fiber test; assay type: functional
[19] = tested on: Mus musculus; assay: Toxicity in tumor cell implanted NCr nu/nu mouse assessed as body weight change at 72.6 umol/kg, ip administered from day 3 to 6 after implantation measured on day 7; assay type: organism-based; settings: in vivo
[20] = tested on: Mus musculus; assay: Toxicity in tumor cell implanted NCr nu/nu mouse assessed as body weight change at 145.3 umol/kg, ip administered from day 3 to 6 after implantation measured on day 7; assay type: organism-based; settings: in vivo
[21] = tested on: Mus musculus; assay: Toxicity in tumor cell implanted NCr nu/nu mouse assessed as body weight change at 290.7 umol/kg, ip administered from day 3 to 6 after implantation measured on day 7; assay type: organism-based; settings: in vivo
[22] = tested on: Lu1; assay: Growth inhibition of human Lu1 cells implanted intraperitoneally to NCr nu/nu mouse at 72.6 to 290.7 umol/kg, ip administered from day 3 to 6 after implantation measured on day 7 by MTT-based hollow-fiber test; assay type: functional
[23] = tested on: SW626; assay: Growth inhibition of human SW626 cells implanted intraperitoneally to NCr nu/nu mouse at 72.6 to 290.7 umol/kg, ip administered from day 3 to 6 after implantation measured on day 7 by MTT-based hollow-fiber test; assay type: functional
[24] = tested on: LNCaP; assay: Growth inhibition of human LNCAP cells implanted intraperitoneally to NCr nu/nu mouse at 72.6 to 290.7 umol/kg, ip administered from day 3 to 6 after implantation measured on day 7 by MTT-based hollow-fiber test; assay type: functional
[25] = tested on: SK-MEL-2; assay: Growth inhibition of human SK-MEL-2 cells implanted intraperitoneally to NCr nu/nu mouse at 72.6 to 290.7 umol/kg, ip administered from day 3 to 6 after implantation measured on day 7 by MTT-based hollow-fiber test; assay type: functional
[26] = tested on: KB; assay: Growth inhibition of human KB cells implanted intraperitoneally to NCr nu/nu mouse at 72.6 to 290.7 umol/kg, ip administered from day 3 to 6 after implantation measured on day 7 by MTT-based hollow-fiber test; assay type: functional
[27] = tested on: MCF7; assay: Growth inhibition of human MCF7 cells implanted intraperitoneally to NCr nu/nu mouse at 72.6 to 290.7 umol/kg, ip administered from day 3 to 6 after implantation measured on day 7 by MTT-based hollow-fiber test; assay type: functional
[28] = tested on: P388; assay: Growth inhibition of mouse P388 cells implanted intraperitoneally to NCr nu/nu mouse at 72.6 to 290.7 umol/kg, ip administered from day 3 to 6 after implantation measured on day 7 by MTT-based hollow-fiber test; assay type: functional
[29] = tested on: Lu1; assay: Growth inhibition of human Lu1 cells implanted subcutaneously to NCr nu/nu mouse at 72.6 to 290.7 umol/kg, ip administered from day 3 to 6 after implantation measured on day 7 by MTT-based hollow-fiber test; assay type: functional
[30] = tested on: SW626; assay: Growth inhibition of human SW626 cells implanted subcutaneously to NCr nu/nu mouse at 72.6 to 290.7 umol/kg, ip administered from day 3 to 6 after implantation measured on day 7 by MTT-based hollow-fiber test; assay type: functional
[31] = tested on: LNCaP; assay: Growth inhibition of human LNCAP cells implanted subcutaneously to NCr nu/nu mouse at 72.6 to 290.7 umol/kg, ip administered from day 3 to 6 after implantation measured on day 7 by MTT-based hollow-fiber test; assay type: functional
[32] = tested on: SK-MEL-2; assay: Growth inhibition of human SK-MEL-2 cells implanted subcutaneously to NCr nu/nu mouse at 72.6 to 290.7 umol/kg, ip administered from day 3 to 6 after implantation measured on day 7 by MTT-based hollow-fiber test; assay type: functional
[33] = tested on: Mus musculus; assay: Toxicity in NCr nu/nu mouse subcutaneously implanted with human KB cells assessed as mortality at 72.6 umol/kg, ip administered on day 10, 13, 16, 20 of implantation; assay type: organism-based; settings: in vivo
[34] = tested on: Mus musculus; assay: Toxicity in NCr nu/nu mouse subcutaneously implanted with human KB cells assessed as mortality at 145.3 umol/kg, ip administered on day 10, 13, 16, 20 of implantation; assay type: organism-based; settings: in vivo
[35] = tested on: Mus musculus; assay: Toxicity in NCr nu/nu mouse subcutaneously implanted with human KB cells assessed as mortality at 290.7 umol/kg, ip administered on day 10, 13, 16, 20 of implantation; assay type: organism-based; settings: in vivo
[36] = tested on: Mus musculus; assay: Toxicity in NCr nu/nu mouse subcutaneously implanted with human KB cells assessed as change in body weight at 72.6 umol/kg, ip administered on day 10, 13, 16, 20 of implantation; assay type: organism-based; settings: in vivo
[37] = tested on: Mus musculus; assay: Toxicity in NCr nu/nu mouse subcutaneously implanted with human KB cells assessed as change in body weight at 145.3 umol/kg, ip administered on day 10, 13, 16, 20 of implantation; assay type: organism-based; settings: in vivo
[38] = tested on: Mus musculus; assay: Toxicity in NCr nu/nu mouse subcutaneously implanted with human KB cells assessed as change in body weight at 290.7 umol/kg, ip administered on day 10, 13, 16, 20 of implantation; assay type: organism-based; settings: in vivo
[39] = tested on: KB; assay: Growth inhibition of human KB cells implanted subcutaneously to NCr nu/nu mouse assessed as tumor size at 72.6 to 290.7 umol/kg, ip administered on day 10, 13, 16, 20 of implantation; assay type: functional, organism-based
[40] = tested on: KB; assay: Growth inhibition of ip dosed intraperitoneally implanted human KB cells to NCr nu/nu mouse administered from day 3 to 6 after implantation measured on day 7 by MTT-based hollow-fiber test; assay type: functional, organism-based
[41] = tested on: KB; assay: Growth inhibition of ip dosed subcutaneously implanted human KB cells to NCr nu/nu mouse administered from day 3 to 6 after implantation measured on day 7 by MTT-based hollow-fiber test; assay type: functional, organism-based
[42] = tested on: SK-MEL-2; assay: Growth inhibition of ip dosed intraperitoneally implanted human SK-MEL-2 cells to NCr nu/nu mouse administered from day 3 to 6 after implantation measured on day 7 by MTT-based hollow-fiber test; assay type: functional, organism-based
[43] = tested on: SK-MEL-2; assay: Growth inhibition of ip dosed subcutaneously implanted human SK-MEL-2 cells to NCr nu/nu mouse administered from day 3 to 6 after implantation measured on day 7 by MTT-based hollow-fiber test; assay type: functional, organism-based
[44] = tested on: KB; assay: Growth inhibition of human KB cells implanted intraperitoneally to NCr nu/nu mouse at 553.1 umol/kg, ip administered from day 3 to 6 after implantation measured on day 7 by MTT-based hollow-fiber test; assay type: functional
[45] = tested on: KB; assay: Growth inhibition of human KB cells implanted subcutaneously to NCr nu/nu mouse at 553.1 umol/kg, ip administered from day 3 to 6 after implantation measured on day 7 by MTT-based hollow-fiber test; assay type: functional
[46] = tested on: Mus musculus; assay: Toxicity in NCr nu/nu mouse subcutaneously implanted with human KB cells assessed as body weight change at 553.1 umol/kg, ip administered from day 3 to 6 after implantation measured on day 7; assay type: organism-based; settings: in vivo
[47] = Inhibition of protein farnesyltransferase
[48] = tested on: P388; assay: Cytotoxicity against mouse P388 cells; assay type: functional, cell-based

Compound: CC(O)c1cc2c(o1)C(=O)c1ccccc1C2=O (stereo not drawn)
inhibition (INH) [1]: 0%
inhibition (INH) [2]: 0%
Activity [3]: -0.4 g
Activity [4]: Toxic
Activity [5]: Toxic
IC50 [6]: 1.2 µM
IC50 [7]: 0.4 µM
IC50 [8]: 2.5 µM
IC50 [9]: 14.5 µM
IC50 [10]: 0.8 µM
IC50 [11]: 4.9 µM
IC50 [12]: 2.1 µM
IC50 [13]: 7.4 µM
IC50 [14]: 13.2 µM
IC50 [15]: 1.2 µM

Compound: C=C1C(=O)[C@@]23CC[C@@H]4[C@@]5(C)CCC[C@@]4(OC5=O)[C@@]2(C)CC[C@]1(OC)C3
inhibition (INH) [16]: 5.7%
inhibition (INH) [17]: 0%
inhibition (INH) [18]: 0%
Activity [19]: 0.74 g
Activity [20]: 0.03 g
Activity [21]: 0.85 g
inhibition (INH) [22]: 0%
inhibition (INH) [23]: 0%
inhibition (INH) [24]: 50.6%
inhibition (INH) [25]: 15.5%
inhibition (INH) [26]: 21.6%
inhibition (INH) [27]: 34.4%
inhibition (INH) [28]: 0%
inhibition (INH) [29]: 0%
inhibition (INH) [30]: 16.3%
inhibition (INH) [31]: 0%
inhibition (INH) [32]: 11.1%
Activity [33]: Non-toxic
Activity [34]: Non-toxic
Activity [35]: Non-toxic
Activity [36]: 7.9%
Activity [37]: 7.6%
Activity [38]: 6.6%
Activity [39]: Active
Activity [40]: Dose-dependent effect
Activity [41]: Dose-dependent effect
Activity [42]: Dose-dependent effect
Activity [43]: Dose-dependent effect
IC50 [6]: 1.2 µM
IC50 [7]: 0.3 µM
IC50 [8]: 0.9 µM
IC50 [9]: 1.2 µM
IC50 [10]: 2 µM
IC50 [11]: 5.2 µM
IC50 [12]: 6.4 µM
IC50 [13]: 3.8 µM
IC50 [14]: 3.5 µM
IC50 [15]: 0.6 µM

IC50 [47]: 2.2 µM
Compound: C=C1C(=O)O[C@@H]2C[C@]3(C)CC[C@]4(C)[C@H](CC[C@@H]5[C@@]6(C)CCC(=O)C(C)(C)[C@@H]6CC[C@]54C)[C@H]3[C@H]12 [OCHRACEOLIDE A]
inhibition in vivo at 553.1 µmol/kg [44]: 0%
inhibition in vivo at 553.1 µmol/kg [45]: 0%
Activity [46]: 0.5 g
IC50 [48]: 0.58 µM
IC50 [6]: 14.8 µM
IC50 [7]: 3.5 µM
IC50 [8]: 16.6 µM
IC50 [9]: 13.1 µM
IC50 [10]: 24.3 µM
IC50 [11]: > 44.2 µM
IC50 [12]: 20.4 µM
IC50 [13]: 19.2 µM
IC50 [14]: 32.3 µM
IC50 [15]: 35.4 µM
